Laboratory results as given in patent publication US20230085307A1, “PYRIDAZINONE COMPOUND AND HERBICIDE” (NISSAN CHEMICAL CORPORATION, priority 2019, published 2023).

Legend:
southern crabgrass = assay: Test Example 5: herbicidal effect by foliage application, plastic box (Table 20, symbol F); type: in vivo, southern crabgrass (Digitaria ciliaris); details: foliage application, three weeks after application
Excerpt: (§1) [Test Example 5] Herbicidal Effect Test by Foliage Application
(§2) Sterilized diluvial soil was placed in a plastic box having a length of 21 cm, a width of 13 cm, and a depth of 7 cm. The seeds of each of southern crabgrass, green foxtail, barnyard grass, wild oat, blackgrass, Italian ryegrass, windgrass, velvetleaf, redroot pigweed, lambsquarters, chickweed, false cleavers, persian speedwell, corn, soybean, rice, wheat, beet, and rapeseed were sowed in a spot-like manner and covered with the soil having a thickness of about 1.5 cm. Thereafter, the plants were grown in a greenhouse at 25° C. to 30° C. After 14-day growth of the plants, the emulsion agent of the compound of the present invention prepared according to Formulation Example 2 was diluted with water so as to achieve a predetermined herbicide amount, and the diluted emulsion agent was uniformly applied to a foliage part with a small-sized spray. Three weeks after the herbicide application, the effect of the herbicide on each plant was evaluated according to the criteria of Test Example 1.

persian speedwell = assay: Test Example 5: herbicidal effect by foliage application, plastic box (Table 20, symbol R); type: in vivo, Persian speedwell (Veronica persica); details: foliage application, three weeks after application
Excerpt: as §1, §2

wild oat = assay: Test Example 5: herbicidal effect by foliage application, plastic box (Table 20, symbol I); type: in vivo, wild oat (Avena fatua); details: foliage application, three weeks after application
Outline: (§3)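 Sow seeds spot-wise in sterilized diluvial soil; cover with ~1.5 cm soil. Grow 14 days in greenhouse, 25° C. to 30° C. Spray foliage with emulsion diluted to predetermined amount. Rate effect after 3 weeks.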

barnyard grass [1] = assay: Test Example 5: herbicidal effect by foliage application, plastic box (Table 20, symbol H); type: in vivo, barnyard grass (Echinochloa crus-galli); details: foliage application, three weeks after application
Outline: as §3

Italian ryegrass = assay: Test Example 5: herbicidal effect by foliage application, plastic box (Table 20, symbol K); type: in vivo, Italian ryegrass (Lolium multiflorum); details: foliage application, three weeks after application
Excerpt: as §1, §2

barnyard grass [2] = assay: Test Example 3: herbicidal effect by foliage application, Wagner pot (Table 18, symbol H); type: in vivo, barnyard grass (Echinochloa crus-galli)
Outline: (§4)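 Plants were sown in alluvial soil held under 0.1–0.5 cm standing water and grown 14 days in a greenhouse at 25–30 °C. An emulsifiable formulation, water-diluted to the set dose, was then sprayed onto the foliage, and effects were scored three weeks later using previously defined criteria.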

Chinese sprangletop = assay: Test Example 3: herbicidal effect by foliage application, Wagner pot (Table 18, symbol D); type: in vivo, chinese sprangletop (Leptochloa chinensis)
Outline: as §4

velvetleaf = assay: Test Example 5: herbicidal effect by foliage application, plastic box (Table 20, symbol M); type: in vivo, velvetleaf (Abutilon theophrasti); details: foliage application, three weeks after application
Outline: as §3

green foxtail = assay: Test Example 5: herbicidal effect by foliage application, plastic box (Table 20, symbol G); type: in vivo, green foxtail (Setaria viridis); details: foliage application, three weeks after application
Outline: as §3

rice flat sedge = assay: Test Example 3: herbicidal effect by foliage application, Wagner pot (Table 18, symbol E); type: in vivo, rice flat sedge (Cyperus iria)
Procedure: [Test Example 3] Herbicidal Effect Test by Foliage Application After alluvial soil was placed into 1/10000 are of Wagner pot, water was poured and mixed to form a submerged condition having a water depth of 0.1 cm to 0.5 cm. Seeds of barnyard grass, Chinese sprangletop, rice flat sedge, and rice were sowed and the pot was placed in a greenhouse at 25° C. to 30° C. for growth of the plants. After 14-day growth of the plants, the emulsion agent of the compound of the present invention prepared according to Formulation Example 2 was diluted with water so as to achieve a predetermined herbicide amount, and the diluted emulsion agent was uniformly applied to a foliage part with a small-sized spray. Three weeks after the herbicide application, the effect of the herbicide on each plant was evaluated according to the criteria of Test Example 1.

windgrass = assay: Test Example 5: herbicidal effect by foliage application, plastic box (Table 20, symbol L); type: in vivo, windgrass (Apera spica-venti); details: foliage application, three weeks after application
Excerpt: as §1, §2

blackgrass = assay: Test Example 5: herbicidal effect by foliage application, plastic box (Table 20, symbol J); type: in vivo, blackgrass (Alopecurus myosuroides); details: foliage application, three weeks after application
Outline: as §3

lambsquarters = assay: Test Example 5: herbicidal effect by foliage application, plastic box (Table 20, symbol O); type: in vivo, lambsquarters (Chenopodium album); details: foliage application, three weeks after application
Excerpt: as §1, §2

CCCC(=O)Oc1c(C)nn(C)c(=O)c1-c1c(-c2ccc(OC)c(OC)c2)sc2cc(OC)c(OC)cc12 [5-063]
herbicidal effect on southern crabgrass (F) (southern crabgrass; 320 g/ha): 0 (Herbicidal rate of 5% or less (almost no effect))
herbicidal effect on persian speedwell (R) (persian speedwell; 320 g/ha): 0 (Herbicidal rate of 5% or less (almost no effect))
herbicidal effect on wild oat (I) (wild oat; 320 g/ha): 0 (Herbicidal rate of 5% or less (almost no effect))
herbicidal effect on barnyard grass (H) (barnyard grass [1]; 320 g/ha): 0 (Herbicidal rate of 5% or less (almost no effect))
herbicidal effect on Italian ryegrass (K) (Italian ryegrass; 320 g/ha): 1 (Herbicidal rate of 5% or more and less than 20%)
herbicidal effect on barnyard grass (H) (barnyard grass [2]; 320 g/ha): 3 (Herbicidal rate of 40% or more and less than 70%)
herbicidal effect on Chinese sprangletop (D) (Chinese sprangletop; 320 g/ha): 0 (Herbicidal rate of 5% or less (almost no effect))
herbicidal effect on velvetleaf (M) (velvetleaf; 320 g/ha): 0 (Herbicidal rate of 5% or less (almost no effect))
herbicidal effect on green foxtail (G) (green foxtail; 320 g/ha): 0 (Herbicidal rate of 5% or less (almost no effect))
herbicidal effect on rice flat sedge (E) (rice flat sedge; 320 g/ha): 2 (Herbicidal rate of 20% or more and less than 40%)
herbicidal effect on windgrass (L) (windgrass; 320 g/ha): 0 (Herbicidal rate of 5% or less (almost no effect))
herbicidal effect on blackgrass (J) (blackgrass; 320 g/ha): 0 (Herbicidal rate of 5% or less (almost no effect))
herbicidal effect on lambsquarters (O) (lambsquarters; 320 g/ha): 0 (Herbicidal rate of 5% or less (almost no effect))

COc1cc2sc(-c3ccc(F)cc3)c(-c3c(O)c(C)nn(C)c3=O)c2cc1-c1ccc(F)cc1 [5-078]
herbicidal effect on southern crabgrass (F) (southern crabgrass; 270 g/ha): 4 (Herbicidal rate of 70% or more and less than 90%)
herbicidal effect on persian speedwell (R) (persian speedwell; 270 g/ha): 0 (Herbicidal rate of 5% or less (almost no effect))
herbicidal effect on wild oat (I) (wild oat; 270 g/ha): 0 (Herbicidal rate of 5% or less (almost no effect))
herbicidal effect on barnyard grass (H) (barnyard grass [1]; 270 g/ha): 4 (Herbicidal rate of 70% or more and less than 90%)
herbicidal effect on Italian ryegrass (K) (Italian ryegrass; 270 g/ha): 0 (Herbicidal rate of 5% or less (almost no effect))
herbicidal effect on barnyard grass (H) (barnyard grass [2]; 270 g/ha): 4 (Herbicidal rate of 70% or more and less than 90%)
herbicidal effect on Chinese sprangletop (D) (Chinese sprangletop; 270 g/ha): 4 (Herbicidal rate of 70% or more and less than 90%)
herbicidal effect on velvetleaf (M) (velvetleaf; 270 g/ha): 3 (Herbicidal rate of 40% or more and less than 70%)
herbicidal effect on green foxtail (G) (green foxtail; 270 g/ha): 5 (Herbicidal rate of 90% or more (almost completely withered))
herbicidal effect on rice flat sedge (E) (rice flat sedge; 270 g/ha): 3 (Herbicidal rate of 40% or more and less than 70%)
herbicidal effect on windgrass (L) (windgrass; 270 g/ha): 0 (Herbicidal rate of 5% or less (almost no effect))
herbicidal effect on blackgrass (J) (blackgrass; 270 g/ha): 0 (Herbicidal rate of 5% or less (almost no effect))
herbicidal effect on lambsquarters (O) (lambsquarters; 270 g/ha): 1 (Herbicidal rate of 5% or more and less than 20%)

Cc1nn(C)c(=O)c(-c2c(-c3ccc(OC(F)F)cc3)sc3cc(Cl)c(Cl)cc23)c1O [5-086]
herbicidal effect on southern crabgrass (F) (southern crabgrass; 320 g/ha): 0 (Herbicidal rate of 5% or less (almost no effect))
herbicidal effect on persian speedwell (R) (persian speedwell; 320 g/ha): 5 (Herbicidal rate of 90% or more (almost completely withered))
herbicidal effect on wild oat (I) (wild oat; 320 g/ha): 0 (Herbicidal rate of 5% or less (almost no effect))
herbicidal effect on barnyard grass (H) (barnyard grass [1]; 320 g/ha): 0 (Herbicidal rate of 5% or less (almost no effect))
herbicidal effect on Italian ryegrass (K) (Italian ryegrass; 320 g/ha): 0 (Herbicidal rate of 5% or less (almost no effect))
herbicidal effect on barnyard grass (H) (barnyard grass [2]; 320 g/ha): 3 (Herbicidal rate of 40% or more and less than 70%)
herbicidal effect on Chinese sprangletop (D) (Chinese sprangletop; 320 g/ha): 0 (Herbicidal rate of 5% or less (almost no effect))
herbicidal effect on velvetleaf (M) (velvetleaf; 320 g/ha): 3 (Herbicidal rate of 40% or more and less than 70%)
herbicidal effect on green foxtail (G) (green foxtail; 320 g/ha): 0 (Herbicidal rate of 5% or less (almost no effect))
herbicidal effect on rice flat sedge (E) (rice flat sedge; 320 g/ha): 0 (Herbicidal rate of 5% or less (almost no effect))
herbicidal effect on windgrass (L) (windgrass; 320 g/ha): 5 (Herbicidal rate of 90% or more (almost completely withered))
herbicidal effect on blackgrass (J) (blackgrass; 320 g/ha): 5 (Herbicidal rate of 90% or more (almost completely withered))
herbicidal effect on lambsquarters (O) (lambsquarters; 320 g/ha): 5 (Herbicidal rate of 90% or more (almost completely withered))

COc1ccccc1-c1sc2c(C)cc(C)cc2c1-c1c(O)c(C)nn(C)c1=O [6-002]
herbicidal effect on southern crabgrass (F) (southern crabgrass; 320 g/ha): 0 (Herbicidal rate of 5% or less (almost no effect))
herbicidal effect on persian speedwell (R) (persian speedwell; 320 g/ha): 4 (Herbicidal rate of 70% or more and less than 90%)
herbicidal effect on wild oat (I) (wild oat; 320 g/ha): 0 (Herbicidal rate of 5% or less (almost no effect))
herbicidal effect on barnyard grass (H) (barnyard grass [1]; 320 g/ha): 0 (Herbicidal rate of 5% or less (almost no effect))
herbicidal effect on Italian ryegrass (K) (Italian ryegrass; 320 g/ha): 4 (Herbicidal rate of 70% or more and less than 90%)
herbicidal effect on barnyard grass (H) (barnyard grass [2]; 320 g/ha): 4 (Herbicidal rate of 70% or more and less than 90%)
herbicidal effect on Chinese sprangletop (D) (Chinese sprangletop; 320 g/ha): 5 (Herbicidal rate of 90% or more (almost completely withered))
herbicidal effect on velvetleaf (M) (velvetleaf; 320 g/ha): 1 (Herbicidal rate of 5% or more and less than 20%)
herbicidal effect on green foxtail (G) (green foxtail; 320 g/ha): 3 (Herbicidal rate of 40% or more and less than 70%)
herbicidal effect on rice flat sedge (E) (rice flat sedge; 320 g/ha): 3 (Herbicidal rate of 40% or more and less than 70%)
herbicidal effect on windgrass (L) (windgrass; 320 g/ha): 1 (Herbicidal rate of 5% or more and less than 20%)
herbicidal effect on blackgrass (J) (blackgrass; 320 g/ha): 4 (Herbicidal rate of 70% or more and less than 90%)
herbicidal effect on lambsquarters (O) (lambsquarters; 320 g/ha): 2 (Herbicidal rate of 20% or more and less than 40%)
